# Test results reported in patent US8871706B2, “Method for inhibiting inflammation and pre-inflammatory cytokine/chemokine expression using a ghrelin analogue” (Ipsen Pharma S.A.S., priority 2007, dated 2014).
# Key:
# [1] = test system: human peripheral blood monocytes; assay: LPS/cytokine assay in human peripheral blood mononuclear cells; type: cell-based; settings: 30 minutes pre-incubation, LPS 100 ηg/ml, 6 hours; ELISA
# Description: Human Peripheral Blood Mononuclear Cells (cat #7200) were procured for the assay (Seracare Diagnostics, Gaithersburg, Md., U.S.A.). Frozen vials were thawed and washed once with Phosphate Buffered Saline (Thermo Fisher Scientific, Inc., Waltham, Mass., U.S.A.). Cells were then counted and plated into 96-well dishes. […] Plates were analyzed with a Spectramax® Reader using Softmax Pro software (Spectramax, Inc., Sunnyvale, Calif., U.S.A.).
# serum cytokines = assay: Continuous infusion of ghrelin analogues in 5/6 nephrectomized rats: serum cytokines; type: in vivo; settings: 150 ηmol/kg/day s.c. osmotic mini-pump; for change of serum IL-10 relative to the nephrectomy/saline group: CKD rats; for serum GM-CSF / serum IL-1-α (second listing) / serum IL-1α / serum IL-6 / serum IL-10 (anti-inflammatory cytokine) / serum TNF-α: nephrectomized rats
# Description: (§1) F344/NTacfBR male rats (Taconic Farms, Inc., Germantown, N.Y., U.S.A.) were housed two to a cage, fed rat chow (diet 5001, Purina Mills, Inc., St. Louis, Mo., U.S.A.) and acclimated for at least three days prior to use.
# (§2) A 5/6 nephrectomy was performed in two stages. The test subjects were initially anesthetized with standard rat cocktail and placed prone in a clean environment. A 1 cm posterior incision was made on the right flank through which the right kidney was located. For animals undergoing nephrectomy, the renal capsule was removed and the upper and lower third of the kidney was transected and the resultant wound cauterized leaving the middle third of the kidney with the renal artery and vein intact. For animals receiving a sham operation, the renal capsule was opened up and cauterized to simulate the manipulations performed in the nephrectomy. The external surgical wounds were closed by suturing and the test subject was isolated to facilitate recovery.
# (§3) Nine days following the initial surgery, the animals were again anesthetized and placed prone in the surgical area. A 1 cm incision was made on the left side of the subject's abdomen and the left kidney was isolated. For animals undergoing nephrectomy, the renal capsule was removed and the vasculature was tied off by suturing. The vascular bundle was then transected distal to the suture and the entire kidney removed. Any residual bleeding was cauterized. For animals in the sham group, the renal capsule was removed and cauterized. The external surgical wounds were closed with suture. While still under anesthesia, osmotic mini-pumps were placed in all test subjects. A 1 cm incision was made in the midline overlying the posterior thorax at the level of the forelimbs and the underlying sub-cutaneous space was opened via blunt dissection. The osmotic minipumps were placed inside and the incision and closed with suture. This procedure marked the first day (“Day 0”) of treatment.
# (§4) Each compound was dissolved in vehicle solution (2% inactivated rat serum, 5% Tween-80) sonicated and filtered through a […] syringe filter.
# Rat serum samples were collected and tested for cytokines IL-1α, IL-1β, IL-2, IL-4, IL-6, IL-10, GM-CSF, INF-γ and TNF-α using a Bio-Plex rat cytokine 9-Plex assay (Bio-Rad Laboratories, Hercules, Calif., U.S.A.) according to the manufacturer's instructions for use thereof.
# The pre-mixed standards were reconstituted in 0.5 ml of a Bio-Plex […] serum standard diluent generating a stock concentration of 50,000 pg/ml for each cytokine. The standard stock was serially diluted in the Bio-Plex rat serum standard diluent to generate eight points for a standard curve. The assay was performed in a 96 well filtration plate supplied with the assay kit. Pre-mixed beads (50 μl) coated with target capture antibodies were transferred to each well of the filtration plate and washed twice with Bio-Plex wash buffer. The samples were diluted (1:4) in the Bio-Plex serum sample diluent. Pre-mixed standards or diluted samples (50 μl) were added to each well containing washed beads. The plate was shaken and incubated at room temperature for thirty minutes at a low speed (300 rpm). After incubation and washing, pre-mixed biotin conjugated detection antibodies were added to each of the wells. The plate was thereafter incubated for approximately thirty minutes and shaken at a low speed (300 rpm). After incubation and washing, strepavidin-PE were added to each well. The incubation was terminated after shaking for ten minutes at room temperature. After washing, the beads were re-suspended in 125 μl of Bio-Plex assay buffer. Beads were read on the Bio-Plex suspension array system (Bio-Rad Laboratories, Hercules, Calif., U.S.A.). The accumulated data was analyzed using Bio-Plex Manager software version 3.0 with 5 PL curve fitting.
# One-way ANOVA was used to determine differences among the nephrectomy and sham groups using a Bonferoni post-hoc test; P<0.05 was considered significant. […]
# 3T3-L1 adipocytes = assay: In vitro cytokine lipolysis assay in 3T3-L1 adipocytes (TNF-α induced lipolysis, glycerol content); type: cell-based; settings: 1, 10 or 100 ηM, 10 minutes pre-treatment; 20 ηg/ml recombinant murine TNF-α, 24 hours
# Description: The claimed compounds were tested for their ability to ameliorate cytokine levels. […] In addition, it has been determined that extracellular glucose is required for TNF-α mediated adipocyte lipolysis (Green, A. et al., Diabetes, (2004), 53 (1):74-81). Glycerol, generated by triglyceride breakdown, is released into the extracellular space through aquaporin adipose. Extracellular glycerol is easily assayed by incubation with glycerol kinase (to produce glycerol phosphate), glycerol phosphate oxidase (to produce H2O2), and horseradish peroxidase in the presence of a calorimetric substrate. As such, free glycerol can be assayed as a marker for adipolysis.
# In the assay protocol, 3T3-L1 adipocytes were permeabilized and preincubated with the ghrelin analogues of the present invention. In particular, 3T3-L1 preadipocytes were obtained from 3T3-L1 fibroblasts (ATCC Deposit No. CL-173 described in U.S. Pat. No. 4,003,789). […]
# The glycerol content was determined using an Adipolysis Assay Kit (Millipore Corporation, Temecula, Calif., U.S.A.).
# LPS-induced endotoxemia = assay: In vivo LPS/cytokine assay in a mouse model; set-up: species or system mice; settings: 5 and 10 nmoles i.p. 10 minutes prior to 5 μg LPS i.p.; serum 2 hours post-LPS
# Description: In an effort to examine the ability of the novel ligands of native ghrelin of the instant application to modulate inflammatory cytokine expression in vivo, mice were treated with ghrelin prior to an LPS administration.
# Male 22-24 g CD1 mice (Charles River Laboratories, Wilmington, Mass., U.S.A.) were used.
# Mice were sacrificed 2 hours post-LPS challenge and serum was collected via heart puncture and stored −80° C.
# Mouse serum was used with Lincoplex™ custom 7-plex immunoassay for TNF-α (FIG. 3), IL-1β, IL-6 (FIG. 6), IL-10 and GM-CSF (Linco Research, Inc., St. Charles, Mo., U.S.A.). The assay was performed according to the manufacturer's instructions. Plates were run on a Luminex® 200 analyzer (Luminex, Austin, Tex., U.S.A.) using Masterplex CT™ v1.0 software for acquisition and Masterplex™ QT v2.5 software for analysis (MiraiBio, Hitachi Software Engineering Co., Yokohama, JP).
# [2] = test system: mouse peritoneal macrophages; assay: LPS-stimulated cytokine secretion from mouse peritoneal macrophages; type: cell-based; settings: in vitro
# Description: Mouse peritoneal macrophages were elicited by intraperitoneal (i. p.) injection of 2 ml of 4% Brewer's thioglycollate medium (Difco, Detroit, Mich., U.S.A.) into male BALB/c mice aged 6 to 10 weeks (Ace Animals, Inc., Boyertown, Pa., U.S.A.). Peritoneal exudate cells were obtained 72 hours after injection by peritoneal lavage with ice-cold RPMI 1640 medium (Sigma-Aldrich, St. Louis, Mo., U.S.A.). Peritoneal exudate cells containing lymphocytes and macrophages were washed twice and re-suspended in ice-cold RPMI 1640 medium supplemented with 2% heat-inactivated fetal calf serum “FCS” (Life Technologies, Rockville, Md., U.S.A.) and were seeded in flat-bottomed 96-well microtiter plates (Corning Glass, Corning, N.Y., U.S.A.) at 8×10^4 cells per well in a final volume 200 μl. The cells were incubated at 37° C. for 2 hours to adhere.
# TNBS-induced colitis [3] = assay: Established colitis model (TNBS); type: in vivo, mice; settings: single 50 nM dose ip on days 6, 7 and 8 post-TNBS
# Description: In an effort to examine the ability of the novel ligands of native ghrelin of the instant application to reduce inflammation of the colon in vivo, inflammation was induced in a mouse model and thereafter said subjects were treated with a novel ghrelin analogue of the instant application.
# (§5) Male SJL mice (Charles River Laboratories, Wilmington, Mass., U.S.A.) approximately 5 to 6 weeks of age were employed. The guidelines proposed by the committee for the Care of Laboratory Animal Resources Commission of Life Sciences-National Research Council were followed to minimize animal pain and distress. Each animal received rodent laboratory chow and ad libitum water.
# (§6) Acute colon inflammation was induced in the test subjects by administering 3 mg of […] (Thermo Scientific Pierce Protein Research Products, Waltham, Mass., U.S.A.) (TNBS) in 50% ethanol via a catheter inserted intrarectally from the test subject's anus on the day the study commenced and then again approximately 7 days thereafter. Control mice received the same volume of 50% ethanol without the TNBS.
# Body weight for all test subjects was measured every day. Macroscopic evaluation of colon inflammation was performed on the 9th day after inducing TNBS-induced colitis.
# The colons of the sacrificed test subjects were removed and measured.
# [4] = test system: IL-1β and IL-1RI gene expression in the hypothalamus and brainstem; assay: Continuous infusion in 5/6 nephrectomized rats: central inflammatory transcripts; type: in vivo; settings: Sham/Saline 1.00
# Description: as §1, §2, §3, §4
# After sacrifice, blood, brain, stomach and muscle were collected. A subset of the rats had their hypothalami dissected out, preserved in RNAlater solution (Applied Biosystems, Inc., Foster City, Calif., U.S.A.) and stored at −70° C. for extraction of RNA and RT-PCR analysis. A subset of the rats had their hypothalami and brainstems dissected out, preserved in RNAlater solution and stored at −70° C. for extraction of RNA and RT-PCR analysis. Hypothalamic blocks were dissected by making coronal transections at the optic chiasm and at the intersection between the hypothalamus and the mammalary bodies and sagital transections along the optic tracks. Cortex was then removed at the level of the corpus callosom. Brainstem blocks were dissected by removal of the cerebellum and coronal transections at the rostral border of the pons and at the spinal cord.
# One-way ANOVA was used to determine differences among the nephrectomy and sham groups using a Bonferoni post-hoc test; P<0.05 was considered significant. In the case of the serum cytokines, each individual set of data was considered by ANOVA and the composite of all of the cytokine levels were considered together after normalizing all levels to the Sham/Saline group using a mixed model analysis for a trend for cytokines values among the different groups. This model takes into account the propensity of some animals to have higher or lower cytokine levels across all of the different cytokines and accounts for within-sample variability.
# TNBS-induced colitis [5] = assay: Acute colon inflammation model (TNBS-induced colitis); type: in vivo, mice
# Description: In an effort to examine the ability of the novel ligands of native ghrelin of the instant application to ameliorate inflammation of the colon in vivo, inflammation was induced in a mouse model and thereafter said subjects were treated with a novel ghrelin analogue of the instant application.
# as §5
# as §6, with “anus.” for “anus on the day the study commenced and then again approximately 7 days thereafter.”, “TNBS. […] Five mice from both groups were sacrificed 4 days post-TNBS-induced challenge.” for “TNBS.”
# Body weight for all test subjects was measured every day. FIG. 27 Serum samples were tested for interferon-gamma by ELISA (Millipore, Inc., Billerica, Mass., U.S.A.). […]
# The colons of the sacrificed test subjects at day 4 and day 10 were removed and measured.
Substance,LPS-stimulated IL-6 secretion [1],LPS-stimulated IL-10 secretion [1],LPS-stimulated TNF-α secretion [1],change of serum IL-10 relative to the nephrectomy/saline group (serum cytokines),serum GM-CSF (serum cytokines),serum IL-1-α (second listing) (serum cytokines),serum IL-1α (serum cytokines),serum IL-6 (serum cytokines),serum IL-10 (anti-inflammatory cytokine) (serum cytokines),serum TNF-α (serum cytokines),expression of IL1-RI in the brainstem [4],transcript levels of IL-1R in the hypothalamus [4],transcript levels of IL-1β in the brainstem [4],transcript levels of IL-1β in the hypothalamus [4],further results
"(Aib^2, Glu^3(NH-hexyl))hGhrelin(1-28)-NH2 (GXEFLSPEHQRVQQRKESKKPPAKLQPR; Aib2, Glu3 NH-hexyl, C-terminal amide; Ghrelin Analogue) [Example #13]",inhibition,inhibition,inhibition,significant increase,7.01+/−2.05,57.37+/−7.48,3.50+/−2.49,83.65+/−21.71,594.83+/−55.22,47.04+/−3.36,,,,,
H-Inp-D-Bal-D-Trp-Phe-Apc-NH2 [Example #27],inhibition,inhibition,inhibition,significant increase,8.01+/−2.83,46.58+/−9.87,3.84+/−1.62,98.41+/−36.66,419.26+/−38.71,45.81+/−6.23,0.75+/−0.18,0.77+/−0.17,1.34+/−0.46,1.54+/−0.42,"lipolysis in the adipocytes induced by TNF-α (glycerol content) (3T3-L1 adipocytes): significantly inhibited; anti-inflammatory effect on LPS-induced endotoxemia (TNF-α, IL-6, IL-10 and IL-13 expression in vivo) (LPS-induced endotoxemia): inhibition of TNF-α, IL-6, IL-10 and IL-13 expression; LPS-stimulated IL-6 secretion [2]: inhibition; LPS-stimulated TNF-α secretion [2]: inhibition; colitis in vivo (TNBS-induced colitis [3]): effectively inhibited; colon size (length) of sacrificed test subjects (TNBS-induced colitis [3]): smaller colons; IFN-γ production in vivo (TNBS-induced colitis [5]; 5 nmolar and 50 nmolar dose ip approximately 12 hours after TNBS, serum ELISA, day 4): inhibited; colon size (length) of sacrificed test subjects (TNBS-induced colitis [5]; day 4 and day 10, 5 nM or 50 nM dose ip): smaller colons"
"H-Gly-Ser-Ser-Phe-Leu-Ser-Pro-Glu-His-Gln-Arg-Val-Gln-Gln-Arg-Lys-Glu-Ser-Lys-Lys-Pro-Pro-Ala-Lys-Leu-Gln-Pro-Arg-NH2 [hGhrelin(1-28)-NH2, reference compound]",,,,,5.24+/−1.93,49.52+/−10.03,3.92+/−2.39,52.42+/−18.68,242.41+/−27.51,34.71+/−14.00,0.72+/−0.12,0.78+/−0.26,1.27+/−0.60,0.98+/−0.46,
